Where two headings read alike, the source gives them in different places.
Legend:
[1] = test system: PD1-ss+10aa/Gaussia Luciferase; assay: Dox-Induced PD1-ss-Gluc Assay; type: cell-based
Procedure, shortened: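 Flp-In 293 T-REx cells stably carrying a doxycycline-inducible Gaussia luciferase fused to the PD1 signal sequence plus 10 aa were plated the day before. Compound dilutions in DMSO/media containing doxycycline were then added and incubated at 37 °C, 5% CO2. Data for undefined stereochemistry refer to stereoisomer mixtures.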

[2] = test system: multiple myeloma cell line NCI-H929; assay: H929 Cell Viability Assay; type: cell-based, human; conditions: Homo sapiens
Procedure, shortened: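 Luminescent CellTiter-Glo read-out of viability after a 48 h exposure (37° C, 5% CO2) of NCI-H929 myeloma cells to compound dilutions in RPMI 1640 plus 10% FBS. Data for structures drawn without stereochemistry refer to stereoisomer mixtures.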

[3] = Liver Microsome Stability Assay, human; type: in vitro ADME; conditions: human liver microsomes 1.0 mg/mL, 1.0 uM compound, 37° C., 1 mM NADPH
Procedure, shortened: (§1)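 Stability was judged from samples quenched at 0 and 30 minutes after incubating 1.0 uM compound with 1.0 mg/mL liver microsomes at 37° C, plus or minus 1 mM NADPH, in 0.1 M potassium phosphate containing 0.4% DMSO.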

[4] = test system: IL-2-FL/Gaussia Luciferase; assay: Dox Inducible IL2-FL-Gluc Assay; type: cell-based
Procedure, shortened: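 Compounds in DMSO/medium with doxycycline were applied to a 293 T-REx stable line expressing an IL-2 (aa 1-153)–Gaussia luciferase fusion under tetracycline-regulated control, cells seeded one day earlier; incubation at 37 °C, 5% CO2. Structures drawn without stereochemistry were tested as stereoisomer mixtures.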

[5] = Liver Microsome Stability Assay, mouse; type: in vitro ADME; conditions: mouse liver microsomes 1.0 mg/mL, 1.0 uM compound, 37° C., 1 mM NADPH
Procedure, shortened: as §1

[6] = Liver Microsome Stability Assay, monkey; type: in vitro ADME; conditions: monkey liver microsomes 1.0 mg/mL, 1.0 uM compound, 37° C., 1 mM NADPH
Procedure, shortened: as §1

[7] = test system: multiple myeloma cell line U266B1; assay: U266 Cell Viability Assay; type: cell-based; conditions: Homo sapiens
Procedure, shortened: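 CellTiter-Glo luminescence was read after a 48 h compound exposure (37 °C, 5% CO2) of human U266B1 myeloma cells grown in 10% FBS-supplemented RPMI 1640. Data for structures shown without defined stereochemistry refer to stereoisomer mixtures.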

[8] = test system: HER3-ss+4aa/Gaussia Luciferase; assay: Dox-Inducible Her3-ss-Gluc Assay; type: cell-based
Source text: Flp-In 293 T-REx™ cells were transfected with pcDNA™5/FRT/TO plasmid inserted with cDNA encoding Gaussia Luciferase fused to the 3′ end of cDNA encoding HER3 signal sequence plus 4 amino acids (N-[…]-C) (SEQ ID NO: 2). Transfected cells were selected for resistance to the selectable markers Hygromycin and Blasticidin to create a stable cell line that contained the HER3-ss+4aa/Gaussia Luciferase cDNA insert whose expression was regulated under the T-REx™ system. The day before assay, cells were trypsinized and plated in 384-well tissue culture plates. The next day, compound dilutions in DMSO/media containing doxycycline were added to the wells and incubated at 37° C., 5% CO2.
(§2) For chemical structures that include one or more stereoisomers, but are illustrated without indicating stereochemistry, the assay data refers to a mixture of stereoisomers.

[9] = Liver Microsome Stability Assay, rat; type: in vitro ADME; conditions: rat liver microsomes 1.0 mg/mL, 1.0 uM compound, 37° C., 1 mM NADPH
Procedure, shortened: as §1

[10] = test system: TNFα-FL/Gaussia Luciferase; assay: Dox Induced TNFα-FL-Gluc Assay; type: cell-based
Source text: Flp-In 293 T-REx™ cells were transfected with pcDNA™5/FRT/TO plasmid inserted with cDNA encoding Gaussia Luciferase fused to the 3′ end of cDNA encoding full length TNFα (amino acids 1-233). Transfected cells were selected for resistance to the selectable markers Hygromycin and Blasticidin to create a stable cell line that contained the TNFα-FL/Gaussia Luciferase cDNA insert whose expression was regulated under the T-REx™ system. The day before assay, cells were trypsinized and plated in 384-well tissue culture plates. The next day, compound dilutions in DMSO/media containing doxycycline were added to the wells and incubated at 37° C., 5% CO2.
as §2

[11] = Flp-In 293 T-REx cells, 24 hours with doxycycline; Table 3; read-out: 24 hr Dox Inducible PD1ssGluc 293FRT/TO: Mean IC50
[12] = NCI-H929 cells, 48 hours, Celltiter-Glo, read-out: 48 hr H929 Viability Celltiter-Glo: Mean EC50
[13] = Flp-In 293 T-REx cells, 24 hours with doxycycline; Table 3; read-out: 24 hr Dox Inducible IL2FLGluc 293FRT/TO: Mean IC50
[14] = ratio of IC50s IL2/PD1; Table 3
[15] = U-266, U266B1 cells, 48 hours, Celltiter-Glo, read-out: 48 hr U266 Viability Celltiter-Glo: Mean EC50
[16] = Flp-In 293 T-REx cells, 24 hours with doxycycline; Table 3; read-out: 24 hr Dox Inducible Her3(ss + 4)Gluc 293FRT/TO: Mean IC50
[17] = Flp-In 293 T-REx cells, 24 hours with doxycycline; Table 3; read-out: 24 hr Dox Inducible TNFaFLGluc 293FRT/TO: Mean IC50
[18] = ratio of IC50s TNF/PD1; Table 3
[19] = read-out: 24 hr Dox Inducible PD1ssGluc 293FRT/TO: Mean IC50; Flp-In 293 T-REx cells, 24 hours with doxycycline; Table 3
[20] = NCI-H929, 48 h, read-out: 48 hr H929 Viability Celltiter-Glo: Mean EC50 (nM)
[21] = read-out: 24 hr Dox Inducible IL2FLGluc 293FRT/TO: Mean IC50; Flp-In 293 T-REx cells, 24 hours with doxycycline; Table 3
[22] = U-266, 48 h, read-out: 48 hr U266 Viability Celltiter-Glo: Mean EC50 (nM)
[23] = read-out: 24 hr Dox Inducible Her3(ss + 4)Gluc 293FRT/TO: Mean IC50; Flp-In 293 T-REx cells, 24 hours with doxycycline; Table 3
[24] = read-out: 24 hr Dox Inducible TNFaFLGluc 293FRT/TO: Mean IC50; Flp-In 293 T-REx cells, 24 hours with doxycycline; Table 3

Row | Structure (SMILES) | IC50 [1, 11] [µM] | EC50 [2, 12] [nM] | Liver Microsome Stability (Multiple Species): Human - % Remaining after 30 min w/ NADPH (%) [3] [%] | IC50 [4, 13] [µM] | Liver Microsome Stability (Multiple Species): Mouse - % Remaining after 30 min w/ NADPH (%) [5] [%] | Liver Microsome Stability (Multiple Species): Monkey - % Remaining after 30 min w/ NADPH (%) [6] [%] | EC50 [7, 15] [nM] | IC50 [8, 16] [µM] | Liver Microsome Stability (Multiple Species): Rat - % Remaining after 30 min w/ NADPH (%) [9] [%] | IC50 [10, 17] [µM] | 24 hr Dox Inducible IL2FLGluc 293FRT/TO: IL2/PD1 [4, 14] | 24 hr Dox Inducible TNFaFLGluc 293FRT/TO: TNF/PD1 [10, 18] | IC50 [1, 19] [µM] | EC50 [2, 20] [nM] | IC50 [4, 21] [µM] | EC50 [7, 22] [nM] | IC50 [8, 23] [µM] | IC50 [10, 24] [µM]
1 | CC(C)n1cnc(F)c1/C=C/c1csc(NC(=O)c2cccn2Cc2ccnc(F)c2)n1 [Compound B2, (E)-N-(4-(2-(4-fluoro-1-isopropyl-1H-imidazol-5-yl)vinyl)thiazol-2-yl)-1-((2-fluoropyridin-4-yl)methyl)-1H-pyrrole-2-carboxamide] |  |  | <1 |  | 6 | <1 |  |  | 8 |  | 2 | >5 | 4.48 | > 25000 | 6.64 | > 25000 | 6.4 | > 25
2 | O=C1CCn2cc(/C=C/c3csc(NC(=O)c4cccn4Cc4ccnc(F)c4)n3)nc2N1 [Compound B3, (E)-1-((2-fluoropyridin-4-yl)methyl)-N-(4-(2-(7-oxo-5,6,7,8-tetrahydroimidazo[1,2-a]pyrimidin-2-yl)vinyl)thiazol-2-yl)-1H-pyrrole-2-carboxamide] | 0.644 | > 25000 | <1 | > 25 | 53 | 1 | > 25000 | > 25 | 19 | > 25 | >39 | >38 |  |  |  |  |  | 
3 | O=C(Nc1nc(/C=C/c2ncoc2CO)cs1)c1cccn1Cc1ccnc(F)c1 [Compound B1, (E)-1-((2-fluoropyridin-4-yl)methyl)-N-(4-(2-(5-(hydroxymethyl)oxazol-4-yl)vinyl)thiazol-2-yl)-1H-pyrrole-2-carboxamide] |  |  | 10 |  | 29 | 2 |  |  | 3 |  | >2.8 | >2 | 8.93 | > 25000 | > 25 | > 25000 | > 25 | > 25
4 | O=C(Nc1nc(/C=C/c2ccc(Cl)cn2)cs1)c1cccn1Cc1ccnc(F)c1 [Compound B8, (E)-N-(4-(2-(5-chloropyridin-2-yl)vinyl)thiazol-2-yl)-1-((2-fluoropyridin-4-yl)methyl)-1H-pyrrole-2-carboxamide] | 0.024 | > 25000 | 22 | 1.68 | 11 | 4 | > 25000 | 1.18 | 1 | 11.2 | 69 | 462 |  |  |  |  |  | 

Continued, in another order:

Row | IC50 [1, 11] [µM] | EC50 [2, 12] [nM] | Liver Microsome Stability (Multiple Species): Human - % Remaining after 30 min w/ NADPH (%) [3] [%] | IC50 [4, 13] [µM] | Liver Microsome Stability (Multiple Species): Mouse - % Remaining after 30 min w/ NADPH (%) [5] [%] | Liver Microsome Stability (Multiple Species): Monkey - % Remaining after 30 min w/ NADPH (%) [6] [%] | EC50 [7, 15] [nM] | IC50 [8, 16] [µM] | Liver Microsome Stability (Multiple Species): Rat - % Remaining after 30 min w/ NADPH (%) [9] [%] | IC50 [10, 17] [µM] | Structure (SMILES) | 24 hr Dox Inducible IL2FLGluc 293FRT/TO: IL2/PD1 [4, 14] | 24 hr Dox Inducible TNFaFLGluc 293FRT/TO: TNF/PD1 [10, 18] | IC50 [1, 19] [µM] | EC50 [2, 20] [nM] | IC50 [4, 21] [µM] | EC50 [7, 22] [nM] | IC50 [8, 23] [µM] | IC50 [10, 24] [µM]
5 | 0.404 | 13700 | <1 | > 25 | 0.05 | <1 | 17300 | > 25 | <1 | > 25 | C/C(=C\c1cn(C(C)C)cn1)c1csc(NC(=O)c2cccn2Cc2ccncc2)n1 [Compound B25, (E)-N-(4-(1-(1-isopropyl-1H-imidazol-4-yl)prop-1-en-2-yl)thiazol-2-yl)-1-(pyridin-4-ylmethyl)-1H-pyrrole-2-carboxamide] | >62 | >61 |  |  |  |  |  | 
6 | 0.161 | 6260 | 6 | 0.748 | 6 | 1 | 20000 | 0.298 | 4 | 3.97 | O=C(Nc1nc(/C=C/[C@H]2CC[C@@H](C(F)(F)F)CC2)cs1)c1cccn1Cc1ccncc1 [Compound B9, 1-(pyridin-4-ylmethyl)-N-(4-((E)-2-((1s,4s)-4-(trifluoromethyl)cyclohexyl)vinyl)thiazol-2-yl)-1H-pyrrole-2-carboxamide] | 5 | 25 |  |  |  |  |  | 
7 | 0.54 | 13600 | 1 | > 25 | 3 | <1 | 15300 | > 25 | 1 | > 25 | C/C(=C\c1cn(C(C)C)cn1)c1csc(NC(=O)c2cccn2Cc2ccnc(F)c2)n1 [Compound B24, (E)-1-((2-fluoropyridin-4-yl)methyl)-N-(4-(1-(1-isopropyl-1H-imidazol-4-yl)prop-1-en-2-yl)thiazol-2-yl)-1H-pyrrole-2-carboxamide] | >46 | >46 |  |  |  |  |  | 
